Assay results as given in US9233978B2, “6-fused heteroaryldihydropyrimidines for the treatment and prophylaxis of hepatitis B virus infection” (Hoffmann-La Roche Inc., priority 2014, dated 2016).

What follows are compounds tested on HBV (assay: Anti-HBV activity in vitro, HepG2.2.15 cells, extracellular HBV DNA by qPCR). Details: Hepatitis B virus, HepG2.2.15, 120 h, HepG2.2.15 cells; HBV replication inhibited by 50%, extracellular HBV DNA by qPCR; five days after compound treatment; read-out: EC50.
Assay type: cell-based
Source text: HepG2.2.15 and HepDE19 are stably-transfected cell lines containing the HBV genome. Both cell lines are derived from the hepatoblastoma cell line Hep G2 (American Type Culture Collection, ATCC® HB-8065™) by the published procedures described in references: MA Selles et al. Proc. Natl. Acad. Sci. USA 1987, 84, 1005-1009 and H Guo et al. Journal of Virology 2007, 81, 12472-12484, respectively. Both cell lines were maintained in Dulbecco's modified Eagle's medium (DMEM)-F12 medium supplemented with 10% fetal bovine serum, 100 U/mL penicillin, 100 μg/mL streptomycin, and 0.5 mg/mL of G418.
While HepG2.2.15 cells constitutively support HBV replication and production of virus particles, HepDE19 cells are inducible by tetracycline. Addition of 1 μg/mL tetracycline in culture medium suppresses HBV replication in HepDE19 cells, whereas switching to tetracycline-free medium resumes this process.
HepG2.2.15 cells were seeded into 96-well plates (3×10^4 cells in 100 μL media per well) and incubated overnight at 37° C. The test compounds were serially half-log diluted in DMSO, then diluted 100 times in culture media. 100 μL of diluted compounds were added into the plates to reach 0.5% final concentration of DMSO in every well. Five days after compound treatment, culture supernatant was collected for further analysis.
For quantitative PCR detection of extracellular HBV DNA, 100 μL of culture supernatant was collected and processed in MagNA Pure 96 Nucleic Acid Purification System (Roche Applied Science) for viral DNA extraction. The extracted samples were subjected to HBV DNA quantification by qPCR.
Compound `COC(=O)C1=C(CN2CCN3C(=O)N(CC(C)(C)C(=O)O)C[C@@H]3C2)NC(c2nccs2)=NC1c1ccc(Cl)cc1` (mixture of isomers) [Example 77, 3-[(8aS)-7-[[4-(4-chlorophenyl)-5-methoxycarbonyl-2-thiazol-2-yl-1,4-dihydropyrimidin-6-yl]methyl]-3-oxo-5,6,8,8a-tetrahydro-1H-imidazo[1,5-a]pyrazin-2-yl]-2,2-dimethyl-propanoic acid] has an EC50 of 146 nM. In the case of `CCOC(=O)C1=C(CN2CCN3C(=O)N(C(C)(C)C)C[C@@H]3[C@H]2C(=O)OC)NC(c2nccs2)=N[C@H]1c1cccc(F)c1Cl` (single isomer, unassigned) [Compound 87B-1], the EC50 is reported as 4 nM. For `CCOC(=O)C1=C(CN2CCN3C(=O)N(C(C)(C)C)C[C@H]3[C@@H]2C(=O)O)NC(c2nccs2)=N[C@H]1c1cccc(F)c1Cl` (single isomer, unassigned) [Example 87A], the EC50 was 62 nM. Compound `COC(=O)C1=C(CN2CCN3C(=O)N(C(C)(C)C)C[C@H]3[C@@H]2C(=O)O)NC(c2nccs2)=N[C@H]1c1ccc(F)c(F)c1C` (single isomer, unassigned) [Example 88A] has an EC50 of 677 nM. In the case of `COC(=O)C1=C(CN2CCN3C(=O)OC(C)(C)[C@@]3(CC(=O)O)C2)NC(c2nccs2)=N[C@H]1c1ccc(F)cc1Cl` (single isomer, unassigned) [Example 90B], the EC50 is reported as 300 nM. For `CCOC(=O)C1=C(CN2CCN3C(=O)N(C)C[C@@H]3[C@H]2C(=O)O)NC(c2nccs2)=N[C@H]1c1cccc(F)c1Cl` (single isomer, unassigned) [Example 91A], the EC50 was 150 nM. `CCOC(=O)C1=C(CN2CCN3C(=O)N(CC4CC4)C[C@H]3[C@@H]2C(=O)O)NC(c2nccs2)=N[C@H]1c1cccc(F)c1Cl` (single isomer, unassigned) [Example 97A] showed an EC50 of 37 nM. In the case of `CCOC(=O)C1=C(CN2CCN3C(=O)N(CC(C)C)C[C@H]3[C@@H]2C(=O)O)NC(c2nccs2)=N[C@H]1c1cccc(F)c1Cl` (single isomer, unassigned) [Example 101A], the EC50 is reported as 40 nM. With `CCOC(=O)C1=C(CN2CCN3C(=O)OC[C@H]3[C@@H]2C(=O)O)NC(c2nccs2)=N[C@H]1c1cccc(F)c1Cl` (single isomer, unassigned) [Example 102A] the EC50 was 147 nM. For `CCOC(=O)C1=C(CN2CCN3C(=O)N(C(C)(C)C)C[C@H]3[C@@H]2CO)NC(c2nccs2)=N[C@H]1c1cccc(F)c1Cl` (single isomer, unassigned) [Example 103A], the EC50 was 140 nM. `CCOC(=O)C1=C(CN2CCN3C(=O)N(C(C)(C)C)C[C@@H]3[C@H]2CO)NC(c2nccs2)=N[C@H]1c1cccc(F)c1Cl` (single isomer, unassigned) [Example 103B] gave an EC50 of 10 nM. `CCOC(=O)C1=C(CN2CCN3C(=O)N(C(C)C)C[C@H]3C2)NC(c2nccs2)=N[C@H]1c1cccc(F)c1Cl` (single isomer, unassigned) [Example 104A] gave an EC50 of 131 nM. `CCOC(=O)C1=C(CN2CCN3C(=O)N(CC(C)(C)O)C[C@H]3C2)NC(c2nccs2)=N[C@H]1c1cccc(F)c1Cl` (single isomer, unassigned) [Example 106A] showed an EC50 of 32 nM. In the case of `COC(=O)C1=C(CN2CCN3C(=O)N([C@H]4C[C@@H](C(=O)O)C4)CC3C2)NC(c2nccs2)=N[C@H]1c1ccc(F)cc1Cl` (stereo in doubt) [Example 40, 3-[(8aR)-7-[[(4R)-4-(2-chloro-4-fluoro-phenyl)-5-methoxycarbonyl-2-thiazol-2-yl-1,4-dihydropyrimidin-6-yl]methyl]-3-oxo-5,6,8,8a-tetrahydro-1H-imidazo[1,5-a]pyrazin-2-yl]cyclobutanecarboxylic acid], the EC50 is reported as 34 nM. In the case of `COC(=O)C1=C(CN2CCN3C(=O)OCCC3C2)NC(c2nccs2)=N[C@H]1c1ccc(F)cc1Cl` (stereo partly drawn) [Example 1, Methyl (4R)-4-(2-chloro-4-fluoro-phenyl)-6-[(6-oxo-1,3,4,8,9,9a-hexahydropyrazino[1,2-c][1,3]oxazin-2-yl)methyl]-2-thiazol-2-yl-1,4-dihydropyrimidine-5-carboxylate], the EC50 is reported as 104 nM. For `COC(=O)C1=C(CN2CCN3C(=O)COCC3C2)NC(c2nccs2)=N[C@H]1c1ccc(F)cc1Cl` (stereo partly drawn) [Example 2, Methyl (4R)-4-(2-chloro-4-fluoro-phenyl)-6-[(4-oxo-6,7,9,9a-tetrahydro-1H-pyrazino[2,1-c][1,4]oxazin-8-yl)methyl]-2-thiazol-2-yl-1,4-dihydropyrimidine-5-carboxylate], the EC50 was 54 nM. For `COC(=O)C1=C(CN2CCN3C(=O)OC[C@H]3C2)NC(c2nccs2)=N[C@H]1c1ccc(F)cc1Cl` [Example 3, Methyl (4R)-6-[[(8aR)-3-oxo-5,6,8,8a-tetrahydro-1H-oxazolo[3,4-a]pyrazin-7-yl]methyl]-4-(2-chloro-4-fluoro-phenyl)-2-thiazol-2-yl-1,4-dihydropyrimidine-5-carboxylate], the EC50 was 23 nM. With `COC(=O)C1=C(CN2CCN3C(=O)CC[C@H]3C2)NC(c2nccs2)=N[C@H]1c1ccc(F)cc1Cl` [Example 5, Methyl (4R)-6-[[(8aS)-6-oxo-1,3,4,7,8,8a-hexahydropyrrolo[1,2-a]pyrazin-2-yl]methyl]-4-(2-chloro-4-fluoro-phenyl)-2-thiazol-2-yl-1,4-dihydropyrimidine-5-carboxylate] the EC50 was 159 nM. `COC(=O)C1=C(CN2CCN3C(=O)CC[C@@H]3C2)NC(c2nccs2)=N[C@H]1c1ccc(F)cc1Cl` [Example 6, Methyl (4R)-6-[[(8aR)-6-oxo-1,3,4,7,8,8a-hexahydropyrrolo[1,2-a]pyrazin-2-yl]methyl]-4-(2-chloro-4-fluoro-phenyl)-2-thiazol-2-yl-1,4-dihydropyrimidine-5-carboxylate] gave an EC50 of 14 nM. With `COC(=O)C1=C(CN2CCN3C(=O)CC[C@@H]3C2)NC(c2nccs2)=N[C@H]1c1ccc(F)cc1Br` [Example 7, Methyl (4R)-6-[[(8aR)-6-oxo-1,3,4,7,8,8a-hexahydropyrrolo[1,2-a]pyrazin-2-yl]methyl]-4-(2-bromo-4-fluoro-phenyl)-2-thiazol-2-yl-1,4-dihydropyrimidine-5-carboxylate] the EC50 was 14 nM. `CCOC(=O)C1=C(CN2CCN3C(=O)CC[C@@H]3C2)NC(c2nccs2)=N[C@H]1c1ccc(F)cc1Br` [Example 8, Ethyl (4R)-6-[[(8aR)-6-oxo-1,3,4,7,8,8a-hexahydropyrrolo[1,2-a]pyrazin-2-yl]methyl]-4-(2-bromo-4-fluoro-phenyl)-2-thiazol-2-yl-1,4-dihydropyrimidine-5-carboxylate] gave an EC50 of 11 nM. Work on `CCOC(=O)C1=C(CN2CCN3C(=O)CC[C@@H]3C2)NC(c2nccs2)=N[C@H]1c1ccc(F)c(F)c1` [Example 9, Ethyl (4 S)-6-[[(8aR)-6-oxo-1,3,4,7,8,8a-hexahydropyrrolo[1,2-a]pyrazin-2-yl]methyl]-4-(3,4-difluorophenyl)-2-thiazol-2-yl-1,4-dihydropyrimidine-5-carboxylate] yielded an EC50 of 64 nM. In the case of `CCOC(=O)C1=C(CN2CCN3C(=O)CCCC3C2)NC(c2nccs2)=N[C@H]1c1cccc(F)c1Cl` (stereo partly drawn) [Example 10, Ethyl (4R)-4-(2-chloro-3-fluoro-phenyl)-6-[(6-oxo-3,4,7,8,9,9a-hexahydro-1H-pyrido[1,2-a]pyrazin-2-yl)methyl]-2-thiazol-2-yl-1,4-dihydropyrimidine-5-carboxylate], the EC50 is reported as 57 nM. `COC(=O)C1=C(CN2CCN3C(=O)NC[C@H]3C2)NC(c2nccs2)=N[C@H]1c1ccc(F)cc1Cl` [Example 12, Methyl (4R)-6-[[(8aS)-3-oxo-1,2,5,6,8,8a-hexahydroimidazo[1,5-a]pyrazin-7-yl]methyl]-4-(2-chloro-4-fluoro-phenyl)-2-thiazol-2-yl-1,4-dihydropyrimidine-5-carboxylate] was tested, and the EC50 was 149 nM. `CCOC(=O)C1=C(CN2CCN3C(=O)NC[C@H]3C2)NC(c2nccs2)=N[C@H]1c1ccc(F)cc1Br` [Example 13, Ethyl (4R)-6-[[(8aS)-3-oxo-1,2,5,6,8,8a-hexahydroimidazo[1,5-a]pyrazin-7-yl]methyl]-4-(2-bromo-4-fluoro-phenyl)-2-thiazol-2-yl-1,4-dihydropyrimidine-5-carboxylate] showed an EC50 of 66 nM. For `COC(=O)C1=C(CN2CCN3C(=O)NC(=O)[C@H]3C2)NC(c2nccs2)=N[C@H]1c1ccc(F)cc1Cl` [Example 15, Methyl (4R)-6-[[(8aR)-1,3-dioxo-5,6,8,8a-tetrahydroimidazo[1,5-a]pyrazin-7-yl]methyl]-4-(2-chloro-4-fluoro-phenyl)-2-thiazol-2-yl-1,4-dihydropyrimidine-5-carboxylate], the EC50 was 110 nM. With `COC(=O)C1=C(CN2CCN3C(=O)NC(=O)[C@@H]3C2)NC(c2nccs2)=N[C@H]1c1ccc(F)cc1Cl` [Example 16, Methyl (4R)-6-[[(8aS)-1,3-dioxo-5,6,8,8a-tetrahydroimidazo[1,5-a]pyrazin-7-yl]methyl]-4-(2-chloro-4-fluoro-phenyl)-2-thiazol-2-yl-1,4-dihydropyrimidine-5-carboxylate] the EC50 was 41 nM.
